Counter-ions that a name gives are not always drawn.
Legend:
[1] = system: TPM3-TRKA, pAKT, and pERK1/2; experiment: Immunoblot of phosphorylation in KM12 cells; assay type: cell-based, human; conditions: low doses, 2 hours
Source text: (§1) Briefly, cells were lysed in RIPA buffer with Halt Protease and Phosphatase Inhibitor Cocktail (Thermo Scientific) and diluted in loading buffer (LI-COR Biosciences). The membranes were scanned and analyzed using the Odyssey Imaging System and software (LI-COR). The following antibodies were used from Cell Signaling: pTRK Y490 (rabbit polyclonal, #9141), pERK1/2 XP T202/Y204 (#9101), total ERK1/2, pAKT S473 (rabbit mAb, #4060), and total AKT mouse clone D3A7 (#2920). TRK (C-14) rabbit polyclonal antibody was purchased from Santa Cruz Biotechnology. GAPDH (MAB374) and pTYR (4G10) are from Millipore.

[2] = system: solid tumors with NTRK gene fusions; experiment: Phase 1 study, tumor response (RECIST 1.1) in patients with NTRK fusions; assay type: in vivo, human
Protocol: Three of the 23 patients harbored NTRK-fusions and were treated at either 100 or 150 mg BID.

[3] = system: TRKA/B/C; experiment: Target inhibition judged from unbound drug levels in Phase 1 study; assay type: in vivo, human; conditions: all dose levels
[4] = system: xenograph (human) tumor derived from CUTO-3F cell line; experiment: Xenograft tumor growth in mice, CUTO-3F; assay type: in vivo; conditions: CUTO-3F xenograft, 60 or 200 mg/kg daily oral
Source text: (§2) The three different cancer cell lines, the CUTO-3F cell line, the KM12 cell line, and the MO-91 cell line, each express a different Trk gene fusion. […] Following implantation of one of these three different xenograph (human) tumors in mice, the change in the volume of each tumor was monitored.

[5] = system: xenograph (human) tumor derived from KM12 cell line; experiment: Xenograft tumor growth in mice, KM12; assay type: in vivo; conditions: 60 or 200 mg/kg daily oral
Source text: as §2

[6] = Stability on aluminum slide at 40° Celsius/75% RH; assay type: physicochemical; conditions: I-HS 10 days; HCl after 1 hour; HBr after 2 weeks; mesylate overnight
[7] = Dynamic vapor sorption (DVS-1 system); assay type: physicochemical
Protocol: For the DVS measurement a sample of crystalline form (I-HS) was cycled through changing humidity conditions to determine its hygroscopicity. The sample was analyzed using a Surface Measurement System DVS-1 Dynamic Vapor Sorption System. […] Data was collected in 1 minute intervals. Nitrogen was used as the carrier gas. […] After completion of the sorption cycle, the sample was dried using the same procedure, but all the way down to 0% RH and finally taken back to the starting point of 20% RH. The weight change during the sorption/desorption cycles were plotted, allowing for the hygroscopic nature of the sample to be determined.

[8] = system: undifferentiated sarcoma with LMNA-NTRK1 fusion; experiment: Phase 1 trial, patient with undifferentiated sarcoma (case report); assay type: in vivo, human; conditions: one patient
Source text: The patient started cycle 1 day 1 three days later. The patient was seen weekly for pharmacokinetic and safety analysis.

[9] = Phase 1 dose escalation study, safety; conditions: for dose limiting toxicity: one patient
Protocol: In patients with measurable disease, efficacy is assessed per RECIST 1.1 criteria.
Response is measured by RECIST Criteria, version 1.1. Serum is collected for pharmacokinetic analysis on Cycle 1 Day 1 and Day 8. Safety information is collected on all patients and the definition of dose-limiting toxicity applies to adverse events regardless of relationship to investigational product.

[10] = system: CUTO-3F lung adenocarcinoma cells harboring MPRIP-NTRK1 fusion; experiment: Cell proliferation assay (Cell Titer 96 MTS), CUTO-3F; assay type: cell-based; conditions: Homo sapiens, 72 h, read-out: IC50, cell proliferation
Protocol: (§3) The KM12 cell line is a colorectal cancer cell line harboring the TPM3-NTRK1 fusion (Vaishnavi et al., Nature Med. 19:1469-1472, 2013). The MO-91 cell line is derived from an acute myeloid leukemia patient harboring the ETV6-NTRK3 fusion (Taipale et al., Nature Biotech. 31:630-637, 2013).
(§4) All proliferation assays were performed in media supplemented with 5% FBS as previously described using Cell Titer 96 MTS (Promega) (Bouhana et al., EORTC-NCI-AACR 26th Symposium on Molecular Targets and Cancer Therapeutics, Barcelona, Spain 2014). Cells were seeded 500-2000 cells/well and treated for 72 hours at the drug concentrations described on each graph. Each assay was performed in triplicate in at least 3 independent biological replicates. Data were plotted and IC50 values calculated using GraphPad software.

[11] = Dynamic vapor sorption / humidity exposure (IGAsorp, 25° C.); assay type: physicochemical; conditions: for hygroscopicity: DVS, hydrogen sulfate
Protocol: • 1. The hygroscopicity was studied at 25° C. using an IGAsorp analyzer. • 2. About 15 mg of sample was placed in a tared mesh sample holder at an initial ambient room humidity setting of ˜35%. • 3. A total wet/dry nitrogen flow rate of 250 cc/min is used throughout the study. • 4. […] The maximum time allowed at any one humidity set point was 120 min. The sample was maintained under dry N2 after the cycle was completed. Percent weight gain was calculated based on the dry weight basis.

[12] = system: xenograph (human) tumor derived from MO-91 cell line; experiment: Xenograft tumor growth in mice, MO-91; assay type: in vivo; conditions: MO-91 xenograft, 60 or 200 mg/kg daily oral
Source text: as §2

[13] = system: TRKA-SHC1 complexes; experiment: TRK-SHC1 proximity ligation assay in CUTO-3 cells; assay type: cell-based, human; conditions: 100 nM, 2 hours, vs DMSO
Protocol: Cells were seeded onto glass coverslips (in a 48 well plate) or chamber slides at 25-75 k cells/well. Cells were treated with the indicated doses and times then fixed for 15 minutes by shaking at room temperature in 4% paraformaldehyde. The cells were rinsed twice in PBS, and then the Duolink® in situ PLA® kit from SigmaAldrich in mouse/rabbit (Red) was used according to the manufacturer's protocol (catalog # DUO92101). The antibody concentrations were optimized using immunofluorescence prior to PLA experiments. The FFPE tissue PLAs from mice or patients were prepared as described in histology. Additionally, samples were treated with 300 mM glycine for 15 minutes prior to the blocking step, otherwise the assay was performed according to the manufacturer's protocol. The cells were mounted using Prolong® gold anti-fade reagent (with DAPI) and cured overnight prior to imaging. […] The following antibodies were used: TRK (C17F1) and ALK (D5F3) from Cell Signaling, SHC1 from Novus, and Grb2 (610111) from BD.

[14] = system: TEL-TRKC oncoprotein, pAKT, and pERK1/2; experiment: Immunoblot of phosphorylation in MO-91 cells; assay type: cell-based, human; conditions: low doses, 2 hours
Source text: as §1

[15] = system: MO-91 acute myeloid leukemia cells harboring ETV6-NTRK3 fusion; experiment: Cell proliferation assay (Cell Titer 96 MTS), MO-91; assay type: cell-based; conditions: Homo sapiens, MO-91, 72 h, read-out: IC50, cell proliferation
Protocol: as §3, §4

[16] = system: HCC78 cells expressing SLC34A2-ROS1 fusion protein; conditions: HCC78 cell line
Protocol: as §4

[17] = system: MPRIP-TRKA oncoprotein and ERK1/2; experiment: Immunoblot of phosphorylation in CUTO-3F cells; assay type: cell-based, human; conditions: low doses, 2 hours
Source text: as §1

[18] = system: KM12 colorectal cancer cells harboring TPM3-NTRK1 fusion; experiment: Cell proliferation assay (Cell Titer 96 MTS), KM12; assay type: cell-based; conditions: Homo sapiens, KM12, 72 h, read-out: IC50, cell proliferation
Protocol: as §3, §4

[19] = Accelerated stability, open vials in LDPE bag, 40° C./75% RH, five weeks; assay type: physicochemical
Protocol: Upon removal from the chamber, the samples were physically characterized by appearance, KF, TGA, DSC, XRD and PLM. The samples were also analyzed by HPLC for chromatographic purity, chiral integrity and potency. Where applicable, the data presented in the stability portion also includes the original T=0 data for comparison purposes. The data can be seen in Tables 25-29 and FIGS. 40-44.

[20] = Phase 1 dose escalation study, pharmacokinetics; assay type: in vivo, human; conditions: oral, patients
[21] = 23 patients, 50 mg QD-150 mg BID

O=C(Nc1cnn2ccc(N3CCC[C@@H]3c3cc(F)ccc3F)nc12)N1CC[C@H](O)C1 [crystalline form (I-HS), (S)—N-(5-((R)-2-(2,5-difluorophenyl)-pyrrolidin-1-yl)-pyrazolo[1,5-a]pyrimidin-3-yl)-3-hydroxypyrrolidine-1-carboxamide hydrogen sulfate]
phosphorylation of TPM3-TRKA, pAKT, pERK1/2 [1]: inhibition of the phorphorylation | response (RECIST 1.1) in three NTRK-fusion patients ([2]; 100 or 150 mg BID): partial response | tumor decrease ([2]; c-kit-negative GIST, ETV6-NTRK3 fusion, 2 cycles+): 30% | tumor decrease ([2]; mammary analogue secretory carcinoma, ETV6-NTRK3 fusion, 2 cycles+): 64% | tumor decrease ([2]; undifferentiated sarcoma, LMNA-NTRK1 fusion, 7 cycles+): 59% | inhibition of TRKA/B/C at peak concentrations [3]: approximately 98% | tumor growth (change in volume) [4]: effectively halt the growth, or decrease the rate of growth | tumor growth (change in volume) [5]: effectively halt the growth, or decrease the rate of growth | Stability at 40° Celsius/75% RH (aluminum slide) [6]: No form change | change in form during DVS (post-DVS XRPD) [7]: no change | hygroscopicity ([7]; DVS isotherm, FIG. 5): non-hygroscopic | DVS (outcome) ([7]; HCl: at 50-60% RH): RH No change | DVS weight gain ([7]; at 80% RH): ~1% gain at 80% | DVS weight gain ([7]; at 95% RH): A 2% gain at 95% | increase in mass during sorption cycle ([7]; between 0% and 90% RH): about 1.7% | response by RECIST 1.1 ([8]; 100 mg twice daily, CT before cycle 2 and cycle 3): partial response | oxygen saturation on room air ([8]; on treatment, baseline 90% with 5 L supplemental oxygen): 97% | CA125 tumor marker levels ([8]; over cycle 1): normalized | Grade 1 and 2 anemia, frequency ([9]; 23 patients): 22% | Grade 1 and 2 dizziness, frequency ([9]; 23 patients): 26% | Grade 1 and 2 fatigue, frequency ([9]; 23 patients): 35% | MTD [9, 21]: has not been reached | tolerability [9, 21]: well tolerated | dose limiting toxicity ([9]; Dose Level 100 mg BID): delirium, grade 3 unrelated | dose limiting toxicity ([9]; Dose Level 150 mg BID): elevated AST, grade 3 | adverse events attributed to drug ([9]; sarcoma patient, after four months of dosing): did not have any adverse events | drug-related adverse events ([9]; sarcoma patient, first 4-week period): No drug-related adverse events were noted | IC50 [10]: < 100 nM | hygroscopicity [11]: non-hygroscopic | hygroscopicity ([11]; listed as Crystalline form (I-HS)): not hygroscopic | mass gained in DVS ([11]; at 80% RH): 1% | tumor growth (change in volume) [12]: effectively halt the growth, or decrease the rate of growth | TRKA-SHC1 complexes (PLA signal) [13]: disruption of TRKA-SHC1 complexes | phosphorylation of TEL-TRKC, pAKT, pERK1/2 [14]: inhibition in the phosphorylation | IC50 [15]: < 10 nM | inhibition of cellular proliferation [16]: did not inhibit | phosphorylation of MPRIP-TRKA and ERK1/2 [17]: inhibition of phosphorylation | IC50 [18]: < 10 nM | Appearance ([19]; 40° C./75% RH, 5 wks): Orange Powder | Assay (HPLC) ([19]; 40° C./75% RH, 5 wks): 79.6% | Chiral Potency (HPLC) ([19]; 40° C./75% RH, 5 wks): 99.6% | KF (water content) ([19]; 40° C./75% RH, 5 wks): 0.21 w/w % | Peak Area Percent, RRT 0.793 ([19]; 40° C./75% RH, 5 wks): 0.07 | Peak Area Percent, RRT 0.863 ([19]; 40° C./75% RH, 5 wks): 0.00 | Peak Area Percent, RRT 0.981 ([19]; 40° C./75% RH, 5 wks): 0.00 | Peak Area Percent, RRT 1.000 ([19]; 40° C./75% RH, 5 wks): 99.93 | Peak Area Percent, RRT 1.535 ([19]; 40° C./75% RH, 5 wks): 0.00 | Total Impurities (HPLC) ([19]; 40° C./75% RH, 5 wks): 0.07% | change of API chemical purity ([19]; 40° C./75% RH, five weeks): did not change significantly | Appearance ([19]; time point 0 wks): Orange Powder | Assay (HPLC) ([19]; time point 0 wks): 79.4% | Chiral Potency (HPLC) ([19]; time point 0 wks): 99.6% | KF (water content) ([19]; time point 0 wks): 0.28 w/w % | Peak Area Percent, RRT 0.793 ([19]; time point 0 wks): 0.07 | Peak Area Percent, RRT 0.863 ([19]; time point 0 wks): 0.00 | Peak Area Percent, RRT 0.981 ([19]; time point 0 wks): 0.00 | Peak Area Percent, RRT 1.000 ([19]; time point 0 wks): 99.86 | Peak Area Percent, RRT 1.535 ([19]; time point 0 wks): 0.07 | Total Impurities (HPLC) ([19]; time point 0 wks): 0.14% | exposure versus dose [20]: increased in approximate proportion with dose | time to maximum plasma concentrations following dosing [20]: 30 to 60 min

From patent US10799505B2, “Crystalline form of (S)-N-(5-((R)-2-(2,5-difluorophenyl)-pyrrolidin-1-yl)-pyrazolo[1,5-A]pyrimidin-3-yl)-3-hydroxypyrrolidine-1-carboxamide hydrogen sulfate” (Array BioPharma, Inc., priority 2014, dated 2020)
